# Patent US6358695B1, “Methods of screening for agonists and antagonists of the HNEAA81 receptor” (SmithKline Beecham Corporation, priority 1997, dated 2002)
# Target: T1, HNEAA81 (Homo sapiens, UniProt Q9BPV8)
# T1 construct: expressed in transfected cells; host or cells: HEK-293 (transient co-transfection)
# T1 sequence (Q9BPV8 1-333 isoform Q9BPV8-2): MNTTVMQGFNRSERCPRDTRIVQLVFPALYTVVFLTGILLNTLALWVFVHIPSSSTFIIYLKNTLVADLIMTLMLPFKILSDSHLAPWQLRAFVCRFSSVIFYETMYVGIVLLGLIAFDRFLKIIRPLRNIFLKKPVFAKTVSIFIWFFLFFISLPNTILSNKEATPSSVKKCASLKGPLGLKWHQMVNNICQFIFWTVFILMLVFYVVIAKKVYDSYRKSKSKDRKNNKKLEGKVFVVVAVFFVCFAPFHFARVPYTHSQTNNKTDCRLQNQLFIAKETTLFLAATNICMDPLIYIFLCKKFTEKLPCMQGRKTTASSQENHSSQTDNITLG
# Assay: FLIPR calcium mobilisation response in HEK-293 cells transiently co-transfected with HNEAA81 and G-proteins
# Assay type: cell-based
# Settings: for calcium mobilization response (in words): HEK-293 cells transfected with HNEAA81 and the G-proteins
# Method: HEK-293 cells were transiently co-transfected with a mammalian expression plasmid encoding HNEAA81 polypeptide, along with cDNAs encoding either the promiscuous G-protein Gal6 or the chimeric G-proteins Gql5 or Gqo5and assayed on FLIPR (Fluorometric Imaging Plate Reader) for a calcium mobilisation response following addition of AP6A or AP5A or d-UDP.
# A dose-dependent (EC50s ˜300 nM), calcium mobilization response was detected following addition of AP6A (response with AP5A or d-UDP not so strong) to cells transfected with HNEAA81 and the G-proteins. […] The cDNAs for both the receptor and the G-proteins had to be expressed in the HEK-293 in order to detect a functional response to these agonists.
SMILES,calcium mobilization response (in words),"EC50 (HEK-293 cells transfected with HNEAA81 and the G-proteins (Gal6 or Gql5 or Gqo5), read-out: EC50 of dose-dependent calcium mobilization response)"
O=c1ccn(C2OC(COP(=O)(O)OP(=O)(O)O)CC2O)c(=O)[nH]1 (stereo not drawn) [d-UDP],not so strong,–
"Nc1ncnc2c1ncn2C1OC(COP(=O)(O)OP(=O)(O)OP(=O)(O)OP(=O)(O)OP(=O)(O)OP(=O)(O)OCC2OC(n3cnc4c(N)ncnc43)C(O)C2O)C(O)C1O (stereo not shown) [AP6A, di-adenosine hexaphosphate]",dose-dependent,~300 nM
"Nc1ncnc2c1ncn2C1OC(COP(=O)(O)OP(=O)(O)OP(=O)(O)OP(=O)(O)OP(=O)(O)OCC2OC(n3cnc4c(N)ncnc43)C(O)C2O)C(O)C1O (stereo not shown) [AP5A, di-adenosine pentaphosphate]",not so strong,–
